Test results as given in patent publication US7071218B2, “N-substituted heterocycles for the treatment of hypercholesteremia, dyslipidemia and other metabolic disorders; cancer, and other diseases” (Incyte San Diego Incorporated, priority 2001, dated 2006).

Legend:
[1] = test system: human cancer cell lines (A549, MDA-MB-468, PC-3, Bx-PC3); experiment: MTT anti-cancer assay, the other cancer cell lines of the panel; assay type: cell-based; conditions: at 10 μM, 6 days, cell lines other than MDA-MB-468 (A549, PC-3, Bx-PC3)
Excerpt: (§1) The anti-cancer activity of the compounds of the invention herein have been tested in in vitro assays using a microculture assay with 3-(4,5-dimethylthiazol-2-yl)-2,5-diphenyltetrazolium bromide (“MTT”) a test well known to those skilled in the art. This assay has an advantage over in vivo assay in that results are obtained within a week as opposed to several months. The assay can be carried out in 96-well microtiter plates. The MTT assay is based on the production of a dark blue formazan product by dehydrogenase in the mitochondria of live tumor cells after exposure to drug for 6 days [M. C. […] Thus, only live cells are stained and can be measured at 595 nm. […]
(§2) Treatment: Before commencing drug treatment, cells were replenished with media containing 0.5% FCS. […] As an end point, the amount of surviving cells (Live cells) was measured using a standard […] assay (MTT based), and calculated as percentage of cells treated with vehicle (DMSO) alone (% control).
(§3) MTT assay: The assay is based on the cleavage of the yellow tetrazolium salt MTT to purple formazan crystals by dehydrogenase activity in active mitochondria. […] The formazan crystals formed are solubilized and the resulting colored solution is quantified using a scanning multiwell spectrophotometer. […]

[2] = test system: 3T3-L1 cells; experiment: 3T3-L1 adipocyte differentiation (lipid content), alone or with rosiglitazone (BRL49653); assay type: cell-based, mouse; conditions: 7 days of treatment
Excerpt: The mouse preadipocyte cell line 3T3-L1 has been extensively used to study adipocyte differentiation. Upon stimulation with differentiating agents, preadipocytes typically undergo one cell cycle expansion and then they are growth arrested and dramatically change their shape to become more rounded cells, loaded with lipids, in a fashion closely reflecting adipogenesis in vivo. In this well-known process of differentiation, peroxisome proliferator activated receptor gamma (PPARγ) and retinoid X receptor (RXR) play a key role. PPARγ binds as an obligatory heterodimer with RXR to specific responsive sequences in the promoter region of target genes. In the particular case of PPARγ/RXR heterodimers, both receptors can be activated via their specific ligands. As a consequence of such activation, adipocyte-specific genes are turned on (C/EBP, aP2, LPL, adipsin, etc) and adipocyte differentiation results. Because lipid accumulation is the endpoint of adipocyte differentiation, the quantification of lipids which have accumulated in cells upon treatment with the compound(s) of interest, will indicate the ability of that compound to trigger adipocyte differentiation. More importantly, the potency of that compound can be estimated as well based on the total amount of lipids accumulated. The amount of lipid measured at the end of the assay for each tested compound is here compared to that of Compound 73 at 0.1 μM, which is considered 100% (see FIG. 11A).
In the particular case of measuring the potential antagonistic activity of some compounds, the putative antagonist is combined together with an agonist (such as the PPARγ agonist BRL49653). Thus, the amount of lipids accumulated in response to BRL49653 (considered as 100% in this case), is decreased by the compound with antagonistic activity (see FIG. 11B).
Materials and Methods: Mouse embryo fibroblast 3T3-L1 cell line, from American Type Culture Collection (ATCC), was used as a model of adipocyte differentiation.
Growing medium (GM): DME Dulbecco's modified Eagle's medium containing 4500 mg/L glucose; 4 mM L-glutamine; 10 U/ml Pen-G; 10 mcg/ml and 10% Calf Serum (CS).
Differentiation medium (DM): DME Dulbecco's modified Eagle's medium containing 4500 mg/L glucose; 4 mM L-glutamine; 10 U/ml Pen-G; 10 mcg/ml and 10% Fetal Calf Serum (FCS). Cells are always kept at 10% CO2.
Cells were seeded at 3,000 cells/well in 96 well-tissue culture plates in growing medium.
Two days after reaching confluence, cells were treated with the different compounds of interest in DM (Day 0). Drugs were replaced every 2–3 days in DM. Differentiation was assessed after 7 days of treatment, by measuring the lipid content in the cells, using the Triglyceride (INFINITY) reagent (Quantitative assay). • Controls: All cells, including control cells (vehicle), are treated with the same volume of dimethyl sulfoxide (DMSO) never exceeding 0.1% final solvent concentration. As a positive control for differentiation, cells were treated with 10 μg insulin per ml and 2.5 μM dexamethasone (Ins/Dex).

[3] = test system: MDA-MB-468 breast cancer cells; experiment: MTT anti-cancer assay, MDA-MB-468 breast cancer cells; assay type: cell-based, human; conditions: at 10 μM, 6 days
Excerpt: as §1, §2, §3

With `CN(C)c1cc2c(cc1-c1ccc3cc(/C=C4\SC(=S)N(CC(=O)O)C4=O)ccc3c1)C(C)(C)CCC2(C)C` [Compound 7, {5-[6-(3-Dimethylamino-5,5,8,8-tetramethyl-5,6,7,8-tetrahydro-naphthalen-2-yl)-naphthalen-2-ylmethylene]-4-oxo-2-thioxo-thiazolidin-3-yl}-acetic acid] the cells killed [1] was no more than 50%, the “lipid accumulation / differentiation of 3T3-L1 cells by the compound alone” value ([2]; 1e-10M to 1e-5M) was “lacked the ability to differentiate 3T3-L1 cells by themselves” and the “inhibition of adipocyte differentiation / lipid accumulation induced by rosiglitazone (BRL49653)” value ([2]; in combination with rosiglitazone) was “strongly inhibited”. It also gave a cells killed [3] of roughly 80%.
